The target of the experiment is PDE5 (Homo sapiens, UniProt O76074). The experiment can be described thus: cGMP PDE activity. In kind it is biochemical.

Experimental findings from paper PMC3151326 (2011) are described below.

`CSc1ccc(/C=C2/C(C)=C(CC(=O)O)c3cc(F)ccc32)cc1` [SS, sulindac sulfide] gave an IC50 of about 100 µM.

Broadly, the IC50 is the midpoint of a concentration-inhibition curve. A higher IC50 goes with weaker potency.
